{
  "source": "patent US20250051263A1",
  "about": "“NOVEL IONIZABLE LIPIDS AND LIPID NANOPARTICLES AND METHODS OF USING THE SAME” (Sail Biomedicines, Inc., priority 2021, published 2025)",
  "data": [
    {"assay": "TNS (pKa) assay, apparent LNP pKa", "assay_type": "physicochemical", "conditions": "Example 5 LNP lipid:DOPE:Plant Cholesterol:DMPE-PEG2k 35:16:46.5:2.5, FLUC/EPO 1:1 mRNA, N:P 6:1", "protocol": "(protocol adapted from: A Novel Amino Lipid Series for mRNA Delivery: Improved Endosomal Escape and Sustained Pharmacology and Safety in Non-human Primates, Sabnis, Staci et al., Molecular Therapy, Volume 26, Issue 6, 1509-1519) 20 buffers (10 mM sodium phosphate, 10 mM sodium borate, 10 mM sodium citrate, and 150 mM sodium chloride, in Distilled Water) of unique pH values ranging from 3.0-12.0 were prepared using 1M sodium hydroxide and 1M hydrochloric acid. 3.25 uL of LNPs (0.04 mg/mL mRNA, in PBS) were incubated with 2 μL of TNS reagent (0.3 mM, in DMSO) and 90 μL of buffer for each pH value (described above) in a 96-well black-walled plate. Each pH condition was performed in triplicate wells. The TNS fluorescence was measured using a Biotek Cytation Plate reader at excitation/emission wavelengths of 321/445 nm. The fluorescence values were then plotted and fit using a 4-parameter sigmoid curve. From the fit, the pH value yielding the half-maximal fluorescence was calculated and reported as the apparent LNP pKa value.\nFor pKa measurement, a […] assay was conducted according to those described in Sabnis et al., Molecular Therapy, 26(6):1509-19), which is incorporated herein by reference in its entirety. Briefly, 20 buffers (10 mM sodium phosphate, 10 mM sodium borate, 10 mM sodium citrate, and 150 mM sodium chloride, in distilled Water) of unique pH values ranging from 3.0-12.0 were prepared using 1M sodium hydroxide and 1M hydrochloric acid. 3.25 μL of a LNP composition (0.04 mg/mL mRNA, in PBS) was incubated with 2 μL of TNS reagent (0.3 mM, in DMSO) and 90 μL of buffer for each pH value (described above) in a 96-well black-walled plate. Each pH condition was performed in triplicate wells. The TNS fluorescence was measured using a Biotek Cytation Plate reader at excitation/emission wavelengths of 321/445 nm. The fluorescence values were then plotted and fit using a 4-parameter sigmoid curve. From the fit, the pH value yielding the half-maximal fluorescence was calculated and reported as the apparent LNP pKa value.", "values": [
      {"smiles": "CCCCCCCCCOC(=O)CCCCCCCN(CCCCCCCC(=O)OC(CCCCCCCC)CCCCCCCC)CCNC(=O)CCC(=O)NCCN(CCCCCCCC(=O)OCCCCCCCCC)CCCCCCCC(=O)OC(CCCCCCCC)CCCCCCCC", "note": "[Compound 2213, nonyl 8-[2-[[4-[2-[(8-nonoxy-8-oxo-octyl)-[8-(1-octylnonoxy)-8-oxo-octyl]amino]ethylamino]-4-oxo-butanoyl]amino]ethyl-[8-(1-octylnonoxy)-8-oxo-octyl]amino]octanoate]", "pKa (TNS)": 6.54},
      {"smiles": "CCCCCCCCCCCOC(=O)CCCCCN(CCCCCCCC(=O)OC(CCCCCCCC)CCCCCCCC)CCN1CCN(CCN(CCCCCCCC(=O)OC(CCCCCCCC)CCCCCCCC)CCCCCC(=O)OCCCCCCCCCCC)CC1", "note": "[Compound 2248, 1-octylnonyl 8-[2-[4-[2-[[8-(1-octylnonoxy)-8-oxo-octyl]-(6-oxo-6-undecoxy-hexyl)amino]ethyl]piperazin-1-yl]ethyl-(6-oxo-6-undecoxy-hexyl)amino]octanoate]", "pKa (TNS)": 6.1},
      {"smiles": "CCCCCCCCC(CCCCCCCC)OC(=O)CCCCCCCN(CCCCCCCC(=O)OC(CCCCCCCC)CCCCCCCC)CCNC(=O)CCC(=O)NCCN(CCCCCCCC(=O)OC(CCCCCCCC)CCCCCCCC)CCCCCCCC(=O)OC(CCCCCCCC)CCCCCCCC", "note": "[Compound 2275, 1-octylnonyl 8-[2-[[4-[2-[bis[8-(1-octylnonoxy)-8-oxo-octyl]amino]ethylamino]-4-oxo-butanoyl]amino]ethyl-[8-(1-octylnonoxy)-8-oxo-octyl]amino] octanoate]", "pKa (TNS)": 6.03},
      {"smiles": "CCCCCCCCCCCNC(=O)CCCCCN(CCCCCCCC(=O)NC(CCCCCCCC)CCCCCCCC)CCNC(=O)CCC(=O)NCCN(CCCCCCCC(=O)NC(CCCCCCCC)CCCCCCCC)CCCCCC(=O)NCCCCCCCCCCC", "note": "[Compound 2282, N,N′-bis[2-[[8-(1-octylnonylamino)-8-oxo-octyl]-[6-oxo-6-(undecylamino)hexyl]amino]ethyl]butanediamide]", "pKa (TNS)": 6.92},
      {"smiles": "CCCCCCCCC(CCCCCCCC)OC(=O)CCCCCCCN(CCCCCCCC(=O)OC(CCCCCCCC)CCCCCCCC)CCNC(=O)CCCC(=O)NCCN(CCCCCCCC(=O)OC(CCCCCCCC)CCCCCCCC)CCCCCCCC(=O)OC(CCCCCCCC)CCCCCCCC", "note": "[Compound 2320, 1-octylnonyl 8-[2-[[5-[2-[bis[8-(1-octylnonoxy)-8-oxo-octyl]amino]ethylamino]-5-oxo-pentanoyl]amino]ethyl-[8-(1-octylnonoxy)-8-oxo-octyl]amino]octanoate]", "pKa (TNS)": 6.07},
      {"smiles": "CCCCCC(CCCCC)CCCOC(=O)CCCCCCCN(CCCCCCCC(=O)OCCCC(CCCCC)CCCCC)CCNC(=O)CCC(=O)NCCN(CCCCCCCC(=O)OCCCC(CCCCC)CCCCC)CCCCCCCC(=O)OCCCC(CCCCC)CCCCC", "note": "[Compound 2332, bis(4-pentyl-nonyl)13,16-dioxo-9,20-bis(8-oxo-8-((4-pentylnon-yl)oxy)octyl)-9,12,17,20-tetraazaocta-cosanedioate]", "pKa (TNS)": 6.57},
      {"smiles": "CCCCCCCCCC(C)COC(=O)CCCCCN(CCCCCCCC(=O)OC(CCCCCCCC)CCCCCCCC)CCNC(=O)CCC(=O)NCCN(CCCCCCCC(=O)OC(CCCCCCCC)CCCCCCCC)CCCCCC(=O)OCC(C)CCCCCCCCC", "note": "(stereo not shown) [Compound 2355, 1-octylnonyl 8-[[6-(2-methylundecoxy)-6-oxo-hexyl]-[2-[[4-[2-[[6-(2-methylundecoxy)-6-oxo-hexyl]-[8-(1-octylnonoxy)-8-oxo-octyl]amino]ethylamino]-4-oxo-butanoyl]amino]ethyl]amino]octanoate]", "pKa (TNS)": 6.2},
      {"smiles": "CCCCCCCCCCC(CC)OC(=O)CCCCCN(CCCCCCCC(=O)OC(CCCCCCCC)CCCCCCCC)CCNC(=O)/C=C/C(=O)NCCN(CCCCCCCC(=O)OC(CCCCCCCC)CCCCCCCC)CCCCCC(=O)OC(CC)CCCCCCCCCC", "note": "(stereo not shown) [Compound 2378, 1-octylnonyl 8-[[6-(1-ethylundecoxy)-6-oxo-hexyl]-[2-[[(E)-4-[2-[[6-(1-ethylundecoxy)-6-oxo-hexyl]-[8-(1-octylnonoxy)-8-oxo-octyl]amino]ethylamino]-4-oxo-but-2-enoyl]amino]ethyl]amino]octanoate]", "pKa (TNS)": 6.33},
      {"smiles": "CCCCCCCCCCCOC(=O)CCCCCN(CCCCCCCC(=O)OCCCC(CCCCC)CCCCC)CCNC(=O)/C=C/C(=O)NCCN(CCCCCCCC(=O)OCCCC(CCCCC)CCCCC)CCCCCC(=O)OCCCCCCCCCCC", "note": "[Compound 2382, 4-pentylnonyl 8-[2-[[(E)-4-oxo-4-[2-[[8-oxo-8-(4-pentylnonoxy)octyl]-(6-oxo-6-undecoxy-hexyl)amino]ethylamino]but-2-enoyl]amino]ethyl-(6-oxo-6-undecoxy-hexyl)amino]octanoate]", "pKa (TNS)": 6.97},
      {"smiles": "CCCCCCCCCCCOC(=O)CCCCCN(CCCCCCCC(=O)OC(CCCCCC)CCCCCCCC)CCNC(=O)CCC(=O)NCCN(CCCCCCCC(=O)OC(CCCCCC)CCCCCCCC)CCCCCC(=O)OCCCCCCCCCCC", "note": "(stereo not shown) [Compound 2390, 1-hexylnonyl 8-[2-[[4-[2-[[8-(1-hexylnonoxy)-8-oxo-octyl]-(6-oxo-6-undecoxy-hexyl)amino]ethylamino]-4-oxo-butanoyl]amino]ethyl-(6-oxo-6-undecoxy-hexyl)amino]octanoate]", "pKa (TNS)": 6.82}
    ]}
  ]
}
